Measured values taken from patent US20240270748A1 (Merck Patent GmbH, priority 2021, published 2024).

How the values were obtained:
NCI-H226 cells = assay: Viability assay in NCI-H226 (Yap-dependent) cells, CyQuant; type: cell-based, human
Method: (§1) Viability Assay in NCI-H226 (Yap-Dependent) and SW620 Yap KO (Yap Independent) Cells
(§2) The ability of YAP-TEAD inhibitors to inhibit tumor cell growth was evaluated using two different cell lines: NCI-H226, which is a YAP dependent cell line, and SW620 cells, where YAP and TAZ were knocked out using CRISPR to generate a YAP independent cell line.
(§3) For the assay, cells were treated in duplicates with the test compounds in a 10-point dose, 1:3 dilution steps, with the top concentration starting at 30 μM (final concentration in assay). After a 96 hour incubation at 37° C., 95% rH, and 5% CO2, a cell-permeant DNA-binding dye that stains only healthy cells (CyQUANT®, Promega) was added to the cells, allowing the quantification of cell viability.
(§4) Cell Media: The NCI-H226 cells were cultured in the following media: RPMI 1640, +10% FBS, +1× GlutaMAX, +10 mM HEPES, +0.5% Pen/Strep. The SW620-KO cells were cultured in the following media: DMEM/F-12, +10% FBS, +1× GlutaMAX, +10 mM HEPES, +0.5% Pen/Strep.
(§5) Reagents: The reagents used are listed below:
(§6) Cell culture: The cells were examined using an inverted microscope to check for health, cell density, etc. To dissociate adherent cells, the monolayer of cells was washed once with pre-warmed PBS. After removing the PBS, 3 ml pre-warmed Accutase was added to a F75 flask, dispersed evenly and the flask was allowed to sit in incubator for ˜4-5 minutes.
(§7) When a single cell suspension was obtained, 7 ml of prewarmed growth media was added and resuspended with the cells. The cell suspension was transferred to a sterile 15 ml conical centrifuge tube, and spun for 5 min at 300×g, RT. The supernatant was discarded and the pellet was resuspended in 10 ml of pre-warmed growth media.
(§8) The total cell count was determined, and 20 μl of the desired cell number was added to each well of a 384 well plate using a Multidrop Combi. The plates were then incubated for 24 hours at 37° C., 95% rH, and 5% CO2.
(§9) Compound treatment: 24 hours after seeding, the cells were treated with compounds.
(§10) A 1:333 dilution of compounds, diluted in DMSO, was made to get a final concentration of 0.3% DMSO per well. To transfer the compounds to the assay plate, […] was shot from Labcyte low dead volume plates to the cell plates containing 20 μl media/well with the ECHO 555 liquid handling system.
(§11) After treatment, the cells were fed with 20 μl fresh pre-warmed assay media using a Multidrop combi.
(§12) The assay plates were then incubated for 96 h at 37° C., 95% rH, and 5% CO2.
(§13) 96 h after treatment 30 μl of CyQuant® reagent was added to the assay plates using a Multidrop combi in the dark. The plates were then incubated for 1 hour at 37° C., 95% rH and 5% CO2. Thereafter, the assay plates were removed from the incubator and allowed to equilibrate to RT for 30 min in the dark without lid. Finally, they were measured using an EnVision microplate reader with a FITC bottom read program.

YAP-TEAD interaction = assay: SK-HEP-1 reporter assay (8xTEAD responsive elements driving NanoLuc luciferase); type: cell-based
How it was run: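 Reporter read-out: NanoLuc luminescence from 8×TEAD elements stably integrated in SK-HEP-1 cells, after 24 h compound exposure at 37° C. Ten concentrations tested in duplicate, top 30 μM final, 0.3% DMSO; IC50 from curve.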

SW620 Yap KO cells = assay: Viability assay in SW620 Yap KO (Yap independent) cells, CyQuant; type: cell-based; conditions: n.d. = value not detectable below threshold given in parentheses
Method: as §1, §2, §3, §4, §5, §6, §7, §8, §9, §10, §11, §12, §13

[1] = Homo sapiens, NCI-H226, 96 h, class symbols
[2] = Homo sapiens, SK-HEP1, SK-HEP-1 reporter assay, class symbols
[3] = Homo sapiens, SW-620, 96 h, ND = not determinable within the entire range
[4] = Homo sapiens, SK-HEP1, SK-HEP-1 reporter assay, n.d. = value not detectable below threshold given in parentheses, ND = not determinable within the entire range
[5] = Homo sapiens, NCI-H226, 96 h, n.d. = value not detectable below threshold given in parentheses

SMILES | IC50 (NCI-H226 cells; [1]) [nM] | IC50 (YAP-TEAD interaction; [2]) [nM] | IC50 (SW620 Yap KO cells; [3]) [nM] | IC50 (SW620 Yap KO cells; Homo sapiens, SW-620, 96 h) [nM] | other results
Cn1nc2c3cc(C(=O)N=S(C)(=O)CCO)ccc3n(-c3ccc(C(F)(F)F)cc3)c2n1 (centres unmarked) [Example C31, N-[(2-hydroxyethyl)(methyl)oxo-A6-sulfanylidene]-2-methyl-4-[4-(trifluoromethyl)phenyl]-2H,4H-[1,2,3]triazolo[4,5-b]indole-7-carboxamide] | 1 to 100 | 10 to 100 | > 30000 |  | 
COCCC(CO)NC(=O)c1ccc2c(c1)c1cn(C)nc1n2-c1ccc(C(F)(F)F)cc1 (single isomer, unassigned) [Example C245] | 1 to 100 |  |  | > 30000 | IC50 (YAP-TEAD interaction; SK-HEP-1 reporter assay, class symbols): 10 to 100 nM
C[C@H](NC(=O)c1ccc2c(c1)c1cn(C)nc1n2-c1ccc(C(F)(F)F)cc1)c1cccc(N)n1 (single isomer, unassigned) [Example C214] | 1 to 100 | 10 to 100 |  | > 3000 | 
Cn1nc2c3cc(C(=O)N[C@H](CO)c4ccccn4)ccc3n(-c3ccc(C(F)(F)F)cc3)c2n1 [Example C249, N-[(1S)-2-hydroxy-1-(pyridin-2-yl)ethyl]-2-methyl-4-[4-(trifluoromethyl)phenyl]-2H,4H-[1,2,3]triazolo[4,5-b]indole-7-carboxamide] | 100 to 1000 | 10 to 100 |  | > 30000 | 
Cn1cc2c3cc(C(=O)NC(CO)c4ccccn4)ccc3n(-c3ccc(C(F)(F)F)nc3)c2n1 (single isomer, unassigned) [Example C124] |  |  |  |  | IC50 (NCI-H226 cells; 96 h, class symbols): 1000 to 10000 nM; IC50 (YAP-TEAD interaction; [4]): > 30000 nM; IC50 (SW620 Yap KO cells; 96 h, ND = not determinable within the entire range): > 30000 nM
C[C@@H](NC(=O)c1ccc2c(c1)c1nn(C)nc1n2-c1ccc(C(F)(F)F)cc1)c1ccccn1 [Example C176, 2-methyl-N-[(1R)-1-(pyridin-2-yl)ethyl]-4-[4-(trifluoromethyl)phenyl]-2H,4H-[1,2,3]triazolo[4,5-b]indole-7-carboxamide] | 100 to 1000 | 10 to 100 |  | > 30000 | 
Cn1nc2c3cc(C(=O)N=[S@@](C)(=O)CCCO)ccc3n(-c3ccc(C(F)(F)F)cc3)c2n1 (single isomer, unassigned) [Example C173] | 1 to 100 | 10 to 100 |  | > 30000 | 
Cc1snc2c1c1cc(C(=O)NC[C@@H](C)O)ccc1n2-c1ccc(C(F)(F)F)cc1 [Example C90, N-[(2R)-2-hydroxypropyl]-3-methyl-8-[4-(trifluoromethyl)phenyl]-8H-[1,2]thiazolo [3,4-b]indole-5-carboxamide] | 1 to 100 | 10 to 100 | > 3200 |  | 
Cc1cc(C(CO)NC(=O)c2ccc3c(c2)c2nn(C)nc2n3-c2ccc(C(F)(F)F)cc2)ccn1 (centres unmarked) [Example C220, N-[2-hydroxy-1-(2-methylpyridin-4-yl)ethyl]-2-methyl-4-[4-(trifluoromethyl)phenyl]-2H,4H-[1,2,3]triazolo[4,5-b]indole-7-carboxamide] | 1 to 100 | 10 to 100 |  | > 3000 | 
Cn1cc2c3cc(S(=O)(=O)NC4CC4)ccc3n(-c3ccc(C(F)(F)F)cc3)c2n1 [Example C72, N-cyclopropyl-2-methyl-8-[4-(trifluoromethyl)phenyl]-2H,8H-pyrazolo[3,4-b]indole-5-sulfonamide] |  | 1 to 10 | > 3200 |  | IC50 (NCI-H226 cells; [5]): > 3200 nM
Cc1snc2c1c1cc(C(=O)N[C@@H](CO)c3ccccn3)ccc1n2-c1ccc(C(F)(F)F)cc1 [Example C67, N-[(1R)-2-hydroxy-1-(pyridin-2-yl)ethyl]-3-methyl-8-[4-(trifluoromethyl)phenyl]-8H-[1,2]thiazolo[3,4-b]indole-5-carboxamide] | 1 to 100 | 10 to 100 | > 3200 |  | 
C[C@H](NC(=O)c1ccc2c(c1)c1nn(C)nc1n2-c1ccc(C(F)(F)F)cc1)c1cccc(N)n1 [Example C183, N-[(1S)-1-(6-aminopyridin-2-yl)ethyl]-2-methyl-4-[4-(trifluoromethyl)phenyl]-2H,4H-[1,2,3]triazolo[4,5-b]indole-7-carboxamide] | 1 to 100 | 100 to 10000 |  | > 3000 | 
Cc1snc2c1c1cc(C(=O)N[C@H](CO)C(C)C)ccc1n2-c1ccc(C(F)(F)F)cc1 [Example C88, N-[(2S)-1-hydroxy-3-methylbutan-2-yl]-3-methyl-8-[4-(trifluoromethyl)phenyl]-8H-[1,2]thiazolo[3,4-b]indole-5-carboxamide] | 100 to 1000 | 10 to 100 | > 3200 |  | 
Cc1cc(C(CO)NC(=O)c2ccc3c(c2)c2cn(C)nc2n3-c2ccc(C(F)(F)F)cc2)ccn1 (centres unmarked) [Example C219, N-[2-hydroxy-1-(2-methylpyridin-4-yl)ethyl]-2-methyl-8-[4-(trifluoromethyl)phenyl]-2H,8H-pyrazolo[3,4-b]indole-5-carboxamide] | 100 to 1000 | 10 to 100 |  | > 3000 | 
O=C(O)c1ccc2c(c1)c1cn(C(F)(F)F)nc1n2-c1ccc(C(F)(F)F)cc1 [Example C35, 2-(trifluoromethyl)-8-[4-(trifluoromethyl)phenyl]-2H,8H-pyrazolo[3,4-b]indole-5-carboxylic acid] | 1000 to 10000 | 10 to 100 | > 30000 |  | 
Cn1cc2c3cc(NS(C)(=O)=O)ccc3n(-c3ccc(C(F)(F)F)cc3)c2n1 [Example C6, N-{2-methyl-8-[4-(trifluoromethyl)phenyl]-2H,8H-pyrazolo[3,4-b]indol-5-yl}methanesulfonamide] | 1 to 100 | 1 to 10 | > 9500 |  | 
Cc1snc2c1c1cc(C(=O)NCC(C)(C)O)ccc1n2-c1ccc(C(F)(F)F)cc1 [Example C52, N-(2-hydroxy-2-methylpropyl)-3-methyl-8-[4-(trifluoromethyl)phenyl]-8H-[1,2]thiazolo[3,4-b]indole-5-carboxamide] | 1 to 100 | 10 to 100 | > 3200 |  | 
Cc1c2c3cc(C(=O)O)ccc3n(-c3ccc(C(F)(F)F)cc3)c2nn1C [Example C95, 2,3-dimethyl-8-[4-(trifluoromethyl)phenyl]-2H,8H-pyrazolo[3,4-b]indole-5-carboxylic acid] | 1 to 100 | 10 to 100 | > 30000 |  | 
Cn1nc2c3cc(C(=O)N=[S@@](=O)(CCCO)Cc4ccncc4)ccc3n(-c3ccc(C(F)(F)F)cc3)c2n1 (single isomer, unassigned) [Example C250] | 1 to 100 |  |  | > 3000 | IC50 (YAP-TEAD interaction; Homo sapiens, SK-HEP1, SK-HEP-1 reporter assay, n.d. = value not detectable below threshold given in parentheses): > 300 nM
C[C@H](NC(=O)c1ccc2c(n1)c1cn(C)nc1n2-c1ccc(C(F)(F)F)cc1)c1ccccn1 [Example C119, 4-methyl-N-[(1S)-1-(pyridin-2-yl)ethyl]-7-[4-(trifluoromethyl)phenyl]-4,5,7,12-tetraazatricyclo[6.4.0.0^2,6]dodeca-1(8),2,5,9,11-pentaene-11-carboxamide] | 1 to 100 | 10 to 100 | > 30000 |  | 
Cn1cc2c3cc(C(=O)N[C@@H](CO)c4ccccn4)ccc3n(-c3ccc(C(F)(F)F)c(F)c3)c2n1 [Example C169, 8-[3-fluoro-4-(trifluoromethyl)phenyl]-N-[(1R)-2-hydroxy-1-(pyridin-2-yl)ethyl]-2-methyl-2H,8H-pyrazolo[3,4-b]indole-5-carboxamide] | 1 to 100 | 10 to 100 |  | > 3200 | 
Cn1cc2c3cc(NS(=O)(=O)Cc4ccncc4)ccc3n(-c3ccc(C(F)(F)F)cc3)c2n1 [Example C128, N-{2-methyl-8-[4-(trifluoromethyl)phenyl]-2H,8H-pyrazolo[3,4-b]indol-5-yl}-1-(pyridin-4-yl)methanesulfonamide] |  |  |  |  | IC50 (NCI-H226 cells; [5]): > 3 nM; IC50 (YAP-TEAD interaction; [4]): > 10000 nM
